The source made the active and inactive calls. The rule behind the calls is not given here.

Experiment [1] concerns the target T1, Tyrosinase (Agaricus bisporus, UniProt O42713).
T1 sequence (O42713 whole entry): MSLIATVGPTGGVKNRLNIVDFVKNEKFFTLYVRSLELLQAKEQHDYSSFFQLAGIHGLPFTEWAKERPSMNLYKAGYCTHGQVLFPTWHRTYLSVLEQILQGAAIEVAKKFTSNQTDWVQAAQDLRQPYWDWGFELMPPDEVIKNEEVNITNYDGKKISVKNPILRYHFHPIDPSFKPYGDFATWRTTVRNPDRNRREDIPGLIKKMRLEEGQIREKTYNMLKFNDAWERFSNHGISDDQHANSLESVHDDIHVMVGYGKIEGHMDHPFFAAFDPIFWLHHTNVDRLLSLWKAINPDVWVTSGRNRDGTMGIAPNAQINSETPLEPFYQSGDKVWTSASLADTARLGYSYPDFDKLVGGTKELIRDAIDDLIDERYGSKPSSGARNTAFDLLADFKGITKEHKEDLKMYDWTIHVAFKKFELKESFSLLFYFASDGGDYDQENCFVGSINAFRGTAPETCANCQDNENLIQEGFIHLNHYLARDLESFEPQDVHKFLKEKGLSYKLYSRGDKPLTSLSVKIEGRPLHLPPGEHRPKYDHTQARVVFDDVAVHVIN
As to the kind of experiment: Inhibition of mushroom tyrosinase diphenolase activity using L-DOPA as substrate preincubated with substrate for 10 mins followed by protein addition measured after 5 mins by spectrophotometric method.

Experiment [2] addresses T2, Tyrosinase (Agaricus bisporus) (UniProt O42713).
T2 sequence (whole entry): T1 sequence (O42713 whole entry)
As to the kind of experiment: Non-competitive inhibition of mushroom tyrosinase diphenolase activity at 2 to 8 uM using L-DOPA as substrate preincubated with substrate for 30 mins followed by protein addition measured after 5 mins by Lineweaver-Burk double-reciprocal plot analysis.

The compound `CC(C)C(=O)N1CCC(Cc2ccc(F)cc2)CC1` had an IC50 in experiment [1] of 35.3 µM.

In experiment [1], `Cc1ccccc1C(=O)N1CCN(Cc2ccc(F)cc2)CC1` registered a concentration for half-maximal inhibition (IC50) of 5.25 µM.

`CC(C)C(=O)N1CCN(Cc2ccc(F)cc2)CC1` returned a concentration for half-maximal inhibition (IC50) in experiment [1] of 30.9 µM.

Consider `O=C(c1cccc(F)c1)N1CCN(Cc2ccc(F)cc2)CC1`, for which, in experiment [1], the concentration for half-maximal inhibition (IC50) came to 54.7 µM.

The compound `Fc1ccc(CN2CCNCC2)cc1` gave an IC50 in experiment [1] of 85.5 µM.

For the compound `Cc1ccc(C(=O)N2CCN(Cc3ccc(F)cc3)CC2)cc1`, inhibition in experiment [1] was half-maximal at 33.1 µM (IC50).

Consider `COc1ccccc1C(=O)N1CCN(Cc2ccc(F)cc2)CC1`, for which the IC50 in experiment [1] worked out at 2.03 µM. Further, in experiment [2], the inhibition result is “Active”.

For the compound `CCC(=O)N1CCN(Cc2ccc(F)cc2)CC1`, the midpoint of inhibition in experiment [1], the IC50, lay at 51.1 µM.

As to `O=C(c1ccccc1)N1CCC(Cc2ccc(F)cc2)CC1`, in experiment [1], the IC50 turned out to be 19.5 µM.

`O=C(c1ccccc1F)N1CCN(Cc2ccc(F)cc2)CC1` gave a half-inhibitory concentration (IC50) in experiment [1] of 3.75 µM.

Consider `O=C(c1ccccc1)N1CCN(Cc2ccc(F)cc2)CC1`, for which the half-maximal inhibitory concentration (IC50) in experiment [1] came to 13.3 µM.

Turning to `O=C(c1ccccc1O)N1CCN(Cc2ccc(F)cc2)CC1`, 7.06 µM corresponded to half-maximal inhibition in experiment [1] (IC50).

In the case of `CCC(=O)N1CCC(Cc2ccc(F)cc2)CC1`, in experiment [1], it took 24.1 µM to reach half-maximal inhibition (IC50).

Turning to `O=C(c1ccc(F)cc1)N1CCN(Cc2ccc(F)cc2)CC1`, the IC50 in experiment [1] came out at 7.77 µM.

For the compound `COc1cccc(C(=O)N2CCN(Cc3ccc(F)cc3)CC2)c1`, in experiment [1], the IC50 turned out to be 27 µM.

Take `CC(=O)N1CCN(Cc2ccc(F)cc2)CC1`: in experiment [1], 45.9 µM corresponded to half-maximal inhibition (IC50).

In the case of `O=C(c1cccc(O)c1)N1CCN(Cc2ccc(F)cc2)CC1`, the 50% inhibitory concentration (IC50) in experiment [1] came to 12.6 µM.

Regarding `O=C(c1ccc(O)cc1)N1CCN(Cc2ccc(F)cc2)CC1`, the midpoint of inhibition in experiment [1], the IC50, lay at 27.4 µM.

Consider `COc1ccc(C(=O)N2CCN(Cc3ccc(F)cc3)CC2)cc1`, for which the midpoint of inhibition in experiment [1], the IC50, lay at 9.14 µM.

In the case of `Cc1cccc(C(=O)N2CCN(Cc3ccc(F)cc3)CC2)c1`, the IC50 in experiment [1] was found to be 174 µM.

`CC(=O)N1CCC(Cc2ccc(F)cc2)CC1` returned a half-inhibitory concentration (IC50) in experiment [1] of 25.1 µM.

(Values after ChEMBL document CHEMBL4177754, “Targeting Tyrosinase: Development and Structural Insights of Novel Inhibitors Bearing Arylpiperidine and Arylpiperazine Fragments” (J Med Chem, 2018).)
